This note sets out measurements from US10844077B2, “Thiazolyl-containing compounds for treating proliferative diseases” (Dana-Farber Cancer Institute, Inc., priority 2014, dated 2020).

Common to all, as to experiment: KINATIV assay of compounds I-3 and I-9, lysate directly labeled with ATP-biotin probe (no GF)
Holding throughout (assay type): cell-based

In assay [1] the target is kinases in BCWM.1 cells (Homo sapiens, UniProt P00533). As to conditions: EGFR; Lys1; 1 μM; no GF. The method, then: (§1) The cells were harvested and lysed. […] Bound kinases were identified and quantitated by ACTIVX as described in Patricelli et al., Biochemistry, 2007, 46(2): 350-358. The compounds were tested in duplicates against duplicate or quadruplicate control samples.

Assay [2] has as its target kinases in BCWM.1 cells (Homo sapiens, UniProt P49841). As to conditions: GSK3B; Lys2; 1 μM; no GF. The method, then:
as §1

Assay [3] concerns the target kinases in BCWM.1 cells (Homo sapiens, UniProt Q14680). Conditions: MELK; Lys2; 1 μM; no GF. The method, then: as §1
Assay [4] deals with kinases in BCWM.1 cells (Homo sapiens, UniProt Q13164). As to conditions: Erk5; Lys2; 1 μM; no GF. The method, then:
as §1

Assay [5] concerns the target kinases in BCWM.1 cells (Homo sapiens, UniProt P54762). Conditions: EphB1; Activation Loop; 1 μM; no GF. The method, then: as §1
Assay [6] has as its target kinases in BCWM.1 cells (Homo sapiens, UniProt P06493). As to conditions: CDC2; Protein Kinase Domain; 1 μM; no GF. The method, then: as §1
For assay [7], the target named is kinases in BCWM.1 cells (Homo sapiens, UniProt Q04759). Conditions: PKCt; ATP Loop; 1 μM, 90 min; no GF. The method, then:
as §1

For assay [8], the target named is kinases in BCWM.1 cells (Homo sapiens, UniProt Q13188). Conditions: MST2; Lys1; 1 μM; no GF. The method, then: as §1
For assay [9], the target named is kinases in BCWM.1 cells (Homo sapiens, UniProt O14757). Conditions: CHK1; Lys2; 1 μM; no GF. The method, then:
as §1

Assay [10] concerns the target kinases in BCWM.1 cells (Homo sapiens, UniProt O14936). Conditions: CASK; Lys1; 1 μM; no GF. The method, then:
as §1

Assay [11] concerns the target kinases in BCWM.1 cells (Homo sapiens, UniProt P23458). Conditions: JAK1 domain2; Activation Loop; 1 μM; no GF. The method, then: as §1
The target of assay [12] is kinases in BCWM.1 cells (Homo sapiens, UniProt Q96GX5). Conditions: MASTL, 1 μM, no GF. The method, then: as §1
Assay [13] addresses kinases in BCWM.1 cells (Homo sapiens, UniProt Q16566). Conditions: CaMK4; Lys2; 1 μM; no GF. The method, then: as §1
The target of assay [14] is kinases in BCWM.1 cells (Homo sapiens, UniProt P24941). Conditions: CDK2; Lys2; 1 μM; no GF. The method, then: as §1
For assay [15], the target named is kinases in BCWM.1 cells (Homo sapiens, UniProt P09769). As to conditions: FGR; Activation Loop; 1 μM; no GF. The method, then:
as §1

Assay [16] concerns the target kinases in BCWM.1 cells (Homo sapiens, UniProt Q13233). Conditions: MAP3K1; Lys2; 1 μM; no GF. The method, then:
as §1

The target of assay [17] is kinases in BCWM.1 cells (Homo sapiens, UniProt Q8NB16). Conditions: MLKL; Lys1; 1 μM; no GF. The method, then:
as §1

The target in assay [18] is kinases in BCWM.1 cells (Homo sapiens, UniProt Q96L34). As to conditions: MARK4; Lys2; 1 μM; no GF. The method, then:
as §1

Assay [19] deals with kinases in BCWM.1 cells (Homo sapiens, UniProt O75582). Conditions: MSK1 domain1; Lys2; 1 μM; no GF. The method, then:
as §1

For assay [20], the target named is kinases in BCWM.1 cells (Homo sapiens, UniProt Q9Y6E0). As to conditions: MST3; Lys2; 1 μM; no GF. The method, then: as §1
Assay [21] concerns the target kinases in BCWM.1 cells (Homo sapiens, UniProt P29323). As to conditions: EphB2; Activation Loop; 1 μM; no GF. The method, then: as §1
Assay [22] has as its target kinases in BCWM.1 cells (Homo sapiens, UniProt P52333). As to conditions: JAK3 domain2; Activation Loop; 1 μM; no GF. The method, then: as §1
For assay [23], the target named is kinases in BCWM.1 cells (Homo sapiens, UniProt Q8IU85). Conditions: CaMKld; Lys1; 1 μM; no GF. The method, then: as §1
Assay [24] deals with kinases in BCWM.1 cells (Homo sapiens, UniProt P06239). Conditions: LCK; Activation Loop; 1 μM; no GF. The method, then:
as §1

Assay [25] addresses kinases in BCWM.1 cells (Homo sapiens, UniProt P49840). As to conditions: GSK3A; Lys2; 1 μM; no GF. The method, then: as §1
Assay [26] deals with kinases in BCWM.1 cells (Homo sapiens, UniProt Q86UX6). As to conditions: YANK3; Lys2; 1 μM, 90 min; no GF. The method, then:
as §1

In assay [27] the target is kinases in BCWM.1 cells (Homo sapiens, UniProt Q8TCG2). As to conditions: PI4K2B; ATP; 1 μM, 90 min; no GF. The method, then: as §1
Assay [28] concerns the target kinases in BCWM.1 cells (Homo sapiens, UniProt P78356). Conditions: PIP4K2B; ATP; 1 μM, 90 min; no GF. The method, then:
as §1

In assay [29] the target is kinases in BCWM.1 cells (Homo sapiens, UniProt Q9C0K7). As to conditions: STLK6; Lys1; 1 μM, 90 min; no GF. The method, then: as §1

Several values for one entry are separate records, joined by “and”; a condition that tells them apart may be missing. Equal entries are not always repeated.

Chain of kinases in BCWM.1 cells (Homo sapiens, UniProt P06239) (P06239 2-509 limits assumed): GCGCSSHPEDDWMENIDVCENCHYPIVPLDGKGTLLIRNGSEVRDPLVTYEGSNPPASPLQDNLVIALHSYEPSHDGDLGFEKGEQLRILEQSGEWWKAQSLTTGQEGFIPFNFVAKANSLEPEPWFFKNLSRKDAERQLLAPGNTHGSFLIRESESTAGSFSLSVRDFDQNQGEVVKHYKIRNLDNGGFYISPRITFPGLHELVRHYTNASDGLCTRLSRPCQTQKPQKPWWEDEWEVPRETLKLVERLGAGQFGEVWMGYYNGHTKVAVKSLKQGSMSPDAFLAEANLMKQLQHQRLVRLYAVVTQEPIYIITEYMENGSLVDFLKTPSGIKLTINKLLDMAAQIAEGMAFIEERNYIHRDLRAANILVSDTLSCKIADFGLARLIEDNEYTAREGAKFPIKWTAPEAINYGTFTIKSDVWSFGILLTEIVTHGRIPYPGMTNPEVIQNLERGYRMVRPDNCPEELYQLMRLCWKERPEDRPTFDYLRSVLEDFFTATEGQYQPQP
Chain of kinases in BCWM.1 cells (Homo sapiens, UniProt P00533) (P00533 25-1210 limits assumed): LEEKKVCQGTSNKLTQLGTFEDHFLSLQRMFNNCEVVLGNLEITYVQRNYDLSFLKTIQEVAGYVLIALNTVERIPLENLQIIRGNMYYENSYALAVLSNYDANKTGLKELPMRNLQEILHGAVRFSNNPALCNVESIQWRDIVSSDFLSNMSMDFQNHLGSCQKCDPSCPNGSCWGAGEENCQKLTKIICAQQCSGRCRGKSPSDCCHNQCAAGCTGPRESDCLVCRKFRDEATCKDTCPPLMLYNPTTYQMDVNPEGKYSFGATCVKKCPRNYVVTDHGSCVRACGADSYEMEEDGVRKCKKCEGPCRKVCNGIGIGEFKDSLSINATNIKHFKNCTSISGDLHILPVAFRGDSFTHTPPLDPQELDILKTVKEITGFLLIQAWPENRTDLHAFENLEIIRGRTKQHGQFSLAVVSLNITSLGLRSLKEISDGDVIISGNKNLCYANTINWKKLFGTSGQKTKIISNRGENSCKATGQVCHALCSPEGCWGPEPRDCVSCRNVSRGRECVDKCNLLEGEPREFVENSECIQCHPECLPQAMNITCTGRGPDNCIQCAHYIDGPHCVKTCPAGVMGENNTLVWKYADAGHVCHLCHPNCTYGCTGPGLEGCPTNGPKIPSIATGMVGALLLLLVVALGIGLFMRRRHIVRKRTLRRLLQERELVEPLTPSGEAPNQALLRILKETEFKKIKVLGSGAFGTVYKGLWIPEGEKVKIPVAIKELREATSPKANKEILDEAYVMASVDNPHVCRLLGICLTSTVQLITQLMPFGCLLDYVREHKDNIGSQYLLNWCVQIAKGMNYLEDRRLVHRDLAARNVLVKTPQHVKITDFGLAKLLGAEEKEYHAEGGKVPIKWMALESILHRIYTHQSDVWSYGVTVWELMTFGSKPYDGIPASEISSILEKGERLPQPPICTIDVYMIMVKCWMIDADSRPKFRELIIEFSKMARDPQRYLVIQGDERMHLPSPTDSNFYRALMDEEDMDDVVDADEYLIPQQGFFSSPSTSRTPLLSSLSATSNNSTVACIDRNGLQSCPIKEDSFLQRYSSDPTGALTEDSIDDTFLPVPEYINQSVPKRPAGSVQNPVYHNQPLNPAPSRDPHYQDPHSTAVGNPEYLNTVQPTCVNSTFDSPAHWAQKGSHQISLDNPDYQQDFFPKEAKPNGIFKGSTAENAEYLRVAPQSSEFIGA
Chain of kinases in BCWM.1 cells (Homo sapiens, UniProt Q13164) (Q13164 2-816 limits assumed): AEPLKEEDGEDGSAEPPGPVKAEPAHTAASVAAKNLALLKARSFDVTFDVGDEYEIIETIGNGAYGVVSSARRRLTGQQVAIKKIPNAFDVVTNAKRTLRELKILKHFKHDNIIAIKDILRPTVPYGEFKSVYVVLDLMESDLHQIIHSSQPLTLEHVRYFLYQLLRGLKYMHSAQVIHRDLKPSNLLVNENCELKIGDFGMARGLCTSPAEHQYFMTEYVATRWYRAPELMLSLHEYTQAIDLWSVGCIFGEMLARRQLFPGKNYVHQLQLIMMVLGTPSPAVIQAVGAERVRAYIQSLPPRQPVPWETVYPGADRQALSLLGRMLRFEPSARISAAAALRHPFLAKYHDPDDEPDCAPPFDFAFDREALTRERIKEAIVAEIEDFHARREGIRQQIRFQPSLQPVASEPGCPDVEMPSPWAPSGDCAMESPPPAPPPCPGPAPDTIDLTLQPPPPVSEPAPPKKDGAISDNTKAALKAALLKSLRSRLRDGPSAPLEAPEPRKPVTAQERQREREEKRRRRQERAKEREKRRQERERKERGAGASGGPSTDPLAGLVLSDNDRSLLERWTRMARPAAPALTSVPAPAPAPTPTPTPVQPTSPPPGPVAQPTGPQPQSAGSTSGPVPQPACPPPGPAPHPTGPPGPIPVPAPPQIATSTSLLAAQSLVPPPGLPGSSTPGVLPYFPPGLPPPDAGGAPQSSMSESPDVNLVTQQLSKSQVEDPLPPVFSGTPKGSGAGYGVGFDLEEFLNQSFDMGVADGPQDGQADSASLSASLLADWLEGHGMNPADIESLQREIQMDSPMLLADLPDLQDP
Chain of kinases in BCWM.1 cells (Homo sapiens, UniProt P54762) (P54762 18-984 limits assumed): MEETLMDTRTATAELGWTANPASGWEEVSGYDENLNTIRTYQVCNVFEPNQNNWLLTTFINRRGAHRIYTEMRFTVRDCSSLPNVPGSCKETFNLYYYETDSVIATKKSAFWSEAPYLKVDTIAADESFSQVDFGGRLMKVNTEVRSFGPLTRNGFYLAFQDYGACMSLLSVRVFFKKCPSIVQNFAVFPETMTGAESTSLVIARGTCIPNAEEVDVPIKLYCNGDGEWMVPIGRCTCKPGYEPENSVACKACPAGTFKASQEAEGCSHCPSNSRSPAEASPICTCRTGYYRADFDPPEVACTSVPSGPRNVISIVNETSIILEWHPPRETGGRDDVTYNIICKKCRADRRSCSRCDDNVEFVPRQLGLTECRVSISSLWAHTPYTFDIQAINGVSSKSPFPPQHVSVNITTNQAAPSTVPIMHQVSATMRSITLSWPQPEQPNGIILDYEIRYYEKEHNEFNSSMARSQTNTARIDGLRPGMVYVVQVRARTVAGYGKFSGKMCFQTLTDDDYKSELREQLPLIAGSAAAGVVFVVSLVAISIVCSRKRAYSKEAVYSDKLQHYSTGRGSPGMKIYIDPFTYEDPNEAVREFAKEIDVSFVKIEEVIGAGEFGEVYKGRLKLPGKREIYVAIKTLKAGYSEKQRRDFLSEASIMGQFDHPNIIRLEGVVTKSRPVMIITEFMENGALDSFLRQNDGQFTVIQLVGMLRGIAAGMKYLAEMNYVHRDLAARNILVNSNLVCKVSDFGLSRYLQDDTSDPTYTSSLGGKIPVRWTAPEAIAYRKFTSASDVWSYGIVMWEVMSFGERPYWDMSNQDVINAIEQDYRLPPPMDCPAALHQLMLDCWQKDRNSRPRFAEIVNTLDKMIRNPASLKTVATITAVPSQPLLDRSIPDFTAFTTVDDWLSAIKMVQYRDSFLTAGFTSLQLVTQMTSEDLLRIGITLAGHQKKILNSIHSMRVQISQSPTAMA
Chain of kinases in BCWM.1 cells (Homo sapiens, UniProt P29323) (P29323 19-1055 limits assumed): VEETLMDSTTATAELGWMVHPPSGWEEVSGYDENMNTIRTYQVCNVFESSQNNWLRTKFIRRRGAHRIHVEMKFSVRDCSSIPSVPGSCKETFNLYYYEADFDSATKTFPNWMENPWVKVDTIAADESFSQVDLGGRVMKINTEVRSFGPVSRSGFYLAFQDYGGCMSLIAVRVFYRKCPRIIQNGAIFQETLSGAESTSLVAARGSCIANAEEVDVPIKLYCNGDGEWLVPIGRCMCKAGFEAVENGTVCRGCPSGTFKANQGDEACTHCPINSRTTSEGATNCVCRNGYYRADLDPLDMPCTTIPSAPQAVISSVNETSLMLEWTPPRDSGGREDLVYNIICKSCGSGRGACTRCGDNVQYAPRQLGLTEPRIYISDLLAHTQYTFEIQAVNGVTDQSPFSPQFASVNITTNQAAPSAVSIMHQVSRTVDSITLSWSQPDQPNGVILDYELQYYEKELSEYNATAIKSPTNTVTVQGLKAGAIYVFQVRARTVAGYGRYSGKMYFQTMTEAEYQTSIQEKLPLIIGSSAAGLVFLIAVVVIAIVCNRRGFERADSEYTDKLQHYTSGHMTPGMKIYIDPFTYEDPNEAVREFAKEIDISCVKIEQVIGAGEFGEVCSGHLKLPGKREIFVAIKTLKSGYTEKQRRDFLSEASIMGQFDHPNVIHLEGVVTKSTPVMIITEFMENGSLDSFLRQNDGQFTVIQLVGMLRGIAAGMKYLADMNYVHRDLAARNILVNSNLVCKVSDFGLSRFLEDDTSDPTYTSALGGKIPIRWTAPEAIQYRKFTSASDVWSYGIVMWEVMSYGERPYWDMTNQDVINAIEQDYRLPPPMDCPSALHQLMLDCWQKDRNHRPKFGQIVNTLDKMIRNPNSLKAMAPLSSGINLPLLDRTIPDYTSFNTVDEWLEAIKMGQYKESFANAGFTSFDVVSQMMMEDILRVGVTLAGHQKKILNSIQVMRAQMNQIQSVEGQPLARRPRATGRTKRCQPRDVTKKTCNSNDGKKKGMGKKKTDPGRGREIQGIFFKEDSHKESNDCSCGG
Chain of kinases in BCWM.1 cells (Homo sapiens, UniProt P09769) (P09769 2-529 limits assumed): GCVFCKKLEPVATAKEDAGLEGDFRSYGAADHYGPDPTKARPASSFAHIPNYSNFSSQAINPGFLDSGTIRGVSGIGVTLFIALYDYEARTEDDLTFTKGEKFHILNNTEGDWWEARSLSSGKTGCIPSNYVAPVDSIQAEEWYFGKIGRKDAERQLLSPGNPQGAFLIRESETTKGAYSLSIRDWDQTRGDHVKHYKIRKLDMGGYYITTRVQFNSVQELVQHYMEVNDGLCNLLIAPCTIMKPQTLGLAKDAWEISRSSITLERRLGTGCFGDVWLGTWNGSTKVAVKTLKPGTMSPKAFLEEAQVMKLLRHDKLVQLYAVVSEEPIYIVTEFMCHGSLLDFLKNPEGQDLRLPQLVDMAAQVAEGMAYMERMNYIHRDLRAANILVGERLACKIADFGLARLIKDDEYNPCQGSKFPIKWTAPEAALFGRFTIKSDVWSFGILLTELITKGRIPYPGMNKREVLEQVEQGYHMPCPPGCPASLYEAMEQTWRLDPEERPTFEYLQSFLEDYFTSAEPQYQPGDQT

Take `C=CC(=O)N1CC[C@H](Nc2nccc(Nc3ncc(C(=O)Nc4c(C)cccc4C)s3)n2)C1` [Example I-3]: the “% change of MS signal compared to control sample” value (“% change of MS signal” for short) in assay [1] is 20% and 17%; in assay [2], 9.4% and −0.5%; in assay [3], −12.1% and −10.6%; in assay [4], 3% and 8.3%; in [5], 92.9% and 95.7%; in [6] it was −0.7% and −4.3%. Further, the “% change of MS signal” value in [7] was −5.2%; in assay [8], −12.1% and −18%; in [9], 9.7% and 5.6%; in assay [10], −1% and 0.5%; in assay [11], −2.9% and −1.6%; in assay [12] (ATP Loop) it was 5.3% and 6%. In addition, the “% change of MS signal” value is 16.4% and 9.8% in assay [12] (Lys1); 6.8% and −0.1% in assay [13]; 3.6% and 1.2% in assay [14]; 95.7% and 95.4% in assay [15]; 22.5% and 18.8% in [16]; −5.6% and −4.6% in [17]. Moreover, the “% change of MS signal” value in assay [18] was −8.5% and −8.7%; in [19], −2.8% and −9%; in assay [20], −2% and −3.8%; in assay [21] it was 91% and 91.6%; in [22] it was −1.5% and −0.6%; in [23], −0.4% and −5%. For the same molecule, the “% change of MS signal” value in [24] is 92.6% and 92.7%; in assay [25], 3.5% and 9%.

As to `CCC(=O)N1CC[C@H](Nc2nccc(Nc3ncc(C(=O)Nc4c(C)cccc4C)s3)n2)C1` [Example I-9], the “% change of MS signal” value in assay [26] is on record as −8.6%; in assay [27] it was 2.6%; in assay [28], 17.6%; in assay [29] it was 7.2%.
